In PubChem BioAssay (NCI) one finds TGI data, which are given here for 7 compounds.

Some test systems named below: SK-MEL-2 melanoma; KM12 colon; 786-0 renal; ACHN renal; U251 CNS; TK-10 renal; MCF7 breast; M14 melanoma; SK-MEL-28 melanoma; SNB-19 CNS; HL-60(TB) leukemia; OVCAR-5 ovarian; NCI-H226 lung; HT29 colon; MDA-N; OVCAR-4 ovarian; HCT-15 colon; MOLT-4 leukemia; NCI-H23 lung; MALME-3M melanoma.
Assay in all cases: NCI tumour cell line growth inhibition, 48 h

Structures are written as SMILES.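 Protocol summary: plate cells (96-well), add compound at 5 concentrations, incubate 48 h, interpolate endpoints linearly. Definition used: TGI = concentration required for complete inhibition of growth.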

With `COc1cc2cc(C(=O)N3CC(CCl)c4ccc([N+](C)(C)Cc5ccccc5[N+](=O)[O-])cc43)[nH]c2c(OC)c1OC` (stereo not given), the TGI was 4.44 µM in the assay on SK-MEL-2 melanoma; 10.2 µM in the assay with KM12 colon; over 36.3 µM with 786-0 renal; over 100 µM with ACHN renal; 26.4 µM in the assay on U251 CNS; over 100 µM in the assay with TK-10 renal. The TGI is over 100 µM with MCF7 breast; 19 µM in the assay on M14 melanoma; 11.4 µM in the assay with SK-MEL-28 melanoma; 9.76 µM in the assay with SNB-19 CNS; over 100 µM in the assay on HL-60(TB) leukemia; over 31.3 µM in the assay with OVCAR-5 ovarian. Also, the TGI in the assay on NCI-H226 lung is 19.5 µM; in the assay on HT29 colon it was over 21.8 µM; with MDA-N, 6.49 µM; in the assay on OVCAR-4 ovarian, 12.9 µM; in the assay with HCT-15 colon it was over 100 µM; with MOLT-4 leukemia it was 2.74 µM. Besides, the TGI in the assay on NCI-H23 lung is 4.9 µM; in the assay with MALME-3M melanoma, 3.59 µM.
On to `CC(C)(C)OC(=O)CCCCCNC(=O)CCCCCNC(=O)CCC(CN(CC(=O)OCc1ccccc1)CC(=O)OCc1ccccc1)N(CC(=O)OCc1ccccc1)CC(=O)OCc1ccccc1` (stereo not given), for which the TGI in the assay on SK-MEL-2 melanoma, in the assay on KM12 colon, with 786-0 renal, in the assay with ACHN renal, in the assay on U251 CNS and in the assay on TK-10 renal was over 100 µM throughout. Further, the TGI with MCF7 breast, in the assay with M14 melanoma, in the assay on SK-MEL-28 melanoma, in the assay with SNB-19 CNS, with HL-60(TB) leukemia and in the assay with OVCAR-5 ovarian was over 100 µM each time. In addition, the TGI in the assay on NCI-H226 lung, in the assay on HT29 colon, in the assay with MDA-N, in the assay on OVCAR-4 ovarian, in the assay with HCT-15 colon and with MOLT-4 leukemia was over 100 µM each time. The TGI in the assay on NCI-H23 lung and with MALME-3M melanoma was over 100 µM throughout.
Consider `CC(=O)[C@H]1[C@H](O)C[C@@]2(C)[C@@H]3CCc4cc(O)c(OC5OC(CO)C(O)C(O)C5O)cc4C3(C)C(=O)C[C@]12C` (stereo not given in full), for which the TGI in the assay on SK-MEL-2 melanoma, in the assay with KM12 colon, in the assay on 786-0 renal, in the assay on ACHN renal, with U251 CNS and with TK-10 renal was over 100 µM throughout. The TGI with MCF7 breast, in the assay on M14 melanoma, with SK-MEL-28 melanoma, in the assay on SNB-19 CNS, in the assay with HL-60(TB) leukemia and in the assay with OVCAR-5 ovarian was over 100 µM throughout. Besides, the TGI with NCI-H226 lung, in the assay with HT29 colon, with MDA-N, in the assay with OVCAR-4 ovarian, in the assay on HCT-15 colon and in the assay with MOLT-4 leukemia was over 100 µM in each case. Besides, the TGI in the assay on NCI-H23 lung and in the assay on MALME-3M melanoma was over 100 µM throughout.
Regarding `O=[N+]1[C@H](c2ccccc2)[C@H](c2ccccc2)N1[O-]`, the TGI with SK-MEL-2 melanoma worked out at 32.8 µM; in the assay on KM12 colon, 45.3 µM; with 786-0 renal it was 26.8 µM; with ACHN renal, 32.3 µM; in the assay with U251 CNS it was 33.5 µM; with TK-10 renal it was 30.9 µM. The TGI with MCF7 breast worked out at 30.5 µM; with M14 melanoma, 29.6 µM; in the assay on SK-MEL-28 melanoma, 30.5 µM; in the assay with SNB-19 CNS, 35.1 µM; with HL-60(TB) leukemia it was 5.48 µM; in the assay with OVCAR-5 ovarian, 35.8 µM. Moreover, the TGI with NCI-H226 lung amounted to 38.9 µM; with HT29 colon, 33.1 µM; with MDA-N, 30.7 µM; in the assay on OVCAR-4 ovarian, 59.2 µM; with HCT-15 colon, 24.7 µM; in the assay on MOLT-4 leukemia, 55.2 µM. The TGI with NCI-H23 lung and with MALME-3M melanoma was 32 µM each time.
Take `O=C1Cc2cn[nH]c2-c2ccccc2N1`: the TGI in the assay on SK-MEL-2 melanoma was over 83.8 µM; in the assay with KM12 colon, over 67.3 µM; in the assay on 786-0 renal, over 100 µM; with ACHN renal it was over 55.7 µM; in the assay with U251 CNS it was over 61.6 µM; with TK-10 renal, 91.5 µM. The TGI with MCF7 breast is over 100 µM; in the assay on M14 melanoma, over 55.2 µM; in the assay on SK-MEL-28 melanoma it was over 100 µM; in the assay with SNB-19 CNS, over 100 µM; with HL-60(TB) leukemia, over 78.3 µM; with OVCAR-5 ovarian, over 57.5 µM. Besides, the TGI in the assay on NCI-H226 lung was over 100 µM; in the assay with HT29 colon, over 100 µM; with MDA-N it was over 100 µM; in the assay with OVCAR-4 ovarian, over 75.1 µM; with HCT-15 colon, over 63.3 µM; with MOLT-4 leukemia, 49.7 µM. Also, the TGI in the assay on NCI-H23 lung was over 100 µM; in the assay with MALME-3M melanoma, over 69.7 µM.
In the case of `CCCCCCCCCCCCCCCCNC(=O)/C(=C\c1ccc(Cl)c(Cl)c1)NC(=O)c1ccccc1`, the TGI is over 100 µM in the assay with SK-MEL-2 melanoma; over 100 µM in the assay on KM12 colon; 47.4 µM in the assay on 786-0 renal; over 100 µM with ACHN renal; over 100 µM in the assay with U251 CNS; 48.8 µM in the assay on TK-10 renal. Also, the TGI with MCF7 breast is 59.1 µM; with M14 melanoma, over 100 µM; in the assay with SK-MEL-28 melanoma it was over 100 µM; in the assay on SNB-19 CNS it was over 100 µM; in the assay on HL-60(TB) leukemia, 22 µM; with OVCAR-5 ovarian, over 100 µM. Further, the TGI is 56.8 µM with NCI-H226 lung; over 100 µM with HT29 colon; over 100 µM with MDA-N; 84.4 µM in the assay on OVCAR-4 ovarian; over 100 µM in the assay with HCT-15 colon; 37.5 µM with MOLT-4 leukemia. The results for the TGI with NCI-H23 lung and with MALME-3M melanoma were 52.6 µM and over 100 µM, respectively.
As to `CCOC(=O)C(=CNc1ccc(F)c(F)c1)C(=O)OCC`, the TGI in the assay on SK-MEL-2 melanoma, in the assay with KM12 colon, in the assay on 786-0 renal, in the assay on ACHN renal, in the assay with U251 CNS and in the assay on TK-10 renal was over 100 µM throughout. For the same compound, the TGI in the assay on MCF7 breast, in the assay with M14 melanoma, with SK-MEL-28 melanoma, with SNB-19 CNS, with HL-60(TB) leukemia and in the assay with OVCAR-5 ovarian was over 100 µM in each case. Further, the TGI in the assay with NCI-H226 lung, with HT29 colon, in the assay on MDA-N, in the assay on OVCAR-4 ovarian, in the assay with HCT-15 colon and in the assay on MOLT-4 leukemia was over 100 µM in each case. Moreover, the TGI with NCI-H23 lung and in the assay on MALME-3M melanoma was over 100 µM throughout.
